Read-outs that look alike come from different tables or passages of the source.
Columns and labels:
5-HT4 receptor [1] = biological target: T1, 5-HT4 receptor (Cavia porcellus, UniProt O70528); assay: Guinea pig colon: 5-HT-evoked contraction of longitudinal muscle-myenteric plexus preparations
Procedure: (§1) In some experiments, this tissue was dosed alternately with an approximately equi-effective concentration of the nicotine receptor stimulant, dimethylphenylpiperazinium (DMPP).

[2] = biological target: piglet hippocampal 5-HT4 receptors (Sus scrofa, UniProt Q6Q253); assay: Binding to piglet hippocampal 5-HT4 receptors (125I-SB-207710); conditions: for pKi: inhibition of 125I-SB-207710 binding in hippocampus
[3] = system: large bowel motility and fluid secretion; assay: Faecal pellet output and fluid content in conscious fed mice (normal and 5-HTP-treated); type: in vivo, mouse
Excerpt: 2) Antagonism in Conscious Fed Mice
A model was developed to examine the effect of 5-HT4 receptor antagonists on large bowel motility (faecal pellet output, FPO) and fluid secretion (pellet wet/dry weight) during `fed` conditions. The antagonists are studied in normal mice (to determine adverse effects, eg constipation)and in mice with functional diarrhoea caused by 5-HTP [Banner S E, Smith M I, Bywater D and Sanger G J (1993), Br J Pharmacol, 110, 17 P, and Banner S E, Smith M I and Sanger G J (1993) Br J Pharmacol; 110, 135 P]. Faecal pellets were collected at 10 min intervals so that their number and wet/dry weights could be determined.

nicotine receptor = assay: Guinea pig colon: DMPP-evoked contraction (nicotinic receptor agonist); conditions: 10^-5 M
Procedure: as §1

5-HT4 receptor [4] = biological target: 5-HT4 receptor (Sus scrofa, UniProt Q6Q253); assay: Piglet atria spontaneous beating screen
Procedure: Compounds are tested in the piglet atria spontaneous beating screen (Naunyn-Schmiedeberg's Arch. Pharmacol 342, 619-622).

5-HT4 receptor [5] = biological target: T2, 5-HT4 receptor (Rattus norvegicus, UniProt Q62758); assay: Rat oesophagus: relaxation of carbachol-contracted tunica muscularis mucosae
T2 construct: The inner smooth muscle tube of the muscularis mucosae is isolated; from tissue; host or cells: rat oesophageal tunica muscularis mucosae
Excerpt: Rat oesophageal tunica muscularis mucosae is set up according to Baxter et. al. Naunyn-Schmiedeberg's Arch. Pharmacol., 343, 439-446 (1991). […] In contrast to the guinea-pig colon model, where the 5-HT4 receptor is neuronally-located, the receptor here is located on the smooth muscle.

5-HT1D = assay: Receptor binding studies: 5-HT1D
Alpha1 = assay: Receptor binding studies: Alpha1
[6] = system: 5-HT-induced gastric motility; assay: 5-HT-induced motility in dog gastric pouch; type: in vivo; conditions: for ED50: Canis lupus familiaris, read-out: ID50 (contractile response to 5-HT)
Procedure: 4) 5-HT-Induced Motility in Dog Gastric Pouch
Compounds are tested for inhibition in the in vivo method described in "Stimulation of canine motility by BRL 24924, a new gastric prokinetic agent", Bermudez et al, J. Gastrointestinal Motility, 1990, 2(4), 281-286.
Dogs with previously prepared Heidenhain gastric pouches are fasted overnight.

5-HT4 receptors = assay: Antagonism of 5-HT-evoked tachycardia in anaesthetised piglets; type: in vivo, piglet
Procedure: 5) Antagonism in Anaesthetised Piglets
In these experiments, antagonism is assessed against the 5-HT-evoked tachycardia, a response that is mediated by the 5-HT4 receptors. All experiments were in 2-5 day old piglets in which the vagi were sectioned.

5-HT4 receptor [7] = biological target: T1, 5-HT4 receptor; assay: Distension-evoked peristalsis in guinea pig isolated ileum; conditions: 5-HT 10^-7 M
Procedure: 1) Distension-Evoked Peristalsis in Guinea Pig Isolated Ileum
The oral end was connected to a Krebs-filled reservoir and the aboral end to a vertical column open to the air. The intraluminal filling pressure (oral end) and peristaltic pressure (aboral end) were monitored. The threshold pressure for peristalsis was determined by raising the reservoir at increments of 0.5 cm H2 O at 1 min intervals until peristalsis occurred.

anxiolytic activity = assay: Social interaction test in rats; type: in vivo, rat; conditions: 0.01, 1, 10 mg.kg^-1
Procedure: IN VIVO TESTING FOR ANXIOLYTIC ACTIVITY
Social Interaction Test in Rats
Rats (male, Sprague Dawleys, Charles River, 250-300 g) are housed in groups of eight in a holding room for 5 days. They are then housed singly in a room adjacent to the experimental room for 4 days prior to the experimental day. On the experimental day rats are administered vehicle, test compound or a benzodiazepine anxiolytic, chlordiazepoxide, p.o. in pairs (n=8-16), at 15 minute intervals beginning at 10.00 a.m. […] The box is made of white perspex 54 cm×37 cm×26 cm with a transparent perspex front side and no lid. The floor is divided up into 24 squares and the box is brightly lit (115 lux). Active social interactive behaviours (grooming, sniffing, climbing over or under, following, biting, mounting and boxing) are scored blind for the next 15 min by remote video monitoring to give total interaction scores. The number of squares crossed by each rat is also scored and summed. After the end of each test the box is carefully wiped.

5-HT4 receptor [8] = biological target: T1, 5-HT4 receptor
Procedure: Male guinea-pigs, weighing 250-400 g are used. Longitudinal muscle-myenteric plexus preparations, approximately 3 cm long, are obtained from the distal colon region. These are suspended under a 0.5 g load in isolated tissue baths containing Krebs solution bubbled with 5% CO2 in O2 and maintained at 37° C. In all experiments, the Krebs solution also contains methiothepin 10^-7 M and granisetron 10^-6 M to block effects at 5-HT1, 5-HT2 and 5-HT3 receptors.

T1 sequence (O70528 whole entry): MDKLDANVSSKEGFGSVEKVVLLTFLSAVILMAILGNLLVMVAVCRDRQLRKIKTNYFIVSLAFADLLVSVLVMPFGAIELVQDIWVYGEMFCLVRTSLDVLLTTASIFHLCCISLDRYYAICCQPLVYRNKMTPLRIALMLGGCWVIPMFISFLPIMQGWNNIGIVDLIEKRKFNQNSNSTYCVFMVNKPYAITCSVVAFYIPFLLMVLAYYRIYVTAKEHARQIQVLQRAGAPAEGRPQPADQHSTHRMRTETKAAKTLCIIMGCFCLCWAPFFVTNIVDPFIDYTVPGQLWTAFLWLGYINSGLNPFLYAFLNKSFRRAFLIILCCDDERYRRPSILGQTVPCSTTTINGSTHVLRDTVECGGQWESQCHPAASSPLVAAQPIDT
Sequence of piglet hippocampal 5-HT4 receptors (Q6Q253 1-402): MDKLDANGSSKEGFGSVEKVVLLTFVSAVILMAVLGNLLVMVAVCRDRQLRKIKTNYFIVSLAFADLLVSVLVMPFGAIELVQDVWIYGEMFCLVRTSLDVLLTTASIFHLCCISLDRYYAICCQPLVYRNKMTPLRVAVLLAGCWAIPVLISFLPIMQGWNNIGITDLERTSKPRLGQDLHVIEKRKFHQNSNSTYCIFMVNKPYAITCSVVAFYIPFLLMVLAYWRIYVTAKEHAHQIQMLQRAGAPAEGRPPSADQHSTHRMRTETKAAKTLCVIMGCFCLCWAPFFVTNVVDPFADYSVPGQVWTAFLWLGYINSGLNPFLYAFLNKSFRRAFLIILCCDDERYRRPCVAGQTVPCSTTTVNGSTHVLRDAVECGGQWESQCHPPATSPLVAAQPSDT
T2 sequence (Q62758 whole entry): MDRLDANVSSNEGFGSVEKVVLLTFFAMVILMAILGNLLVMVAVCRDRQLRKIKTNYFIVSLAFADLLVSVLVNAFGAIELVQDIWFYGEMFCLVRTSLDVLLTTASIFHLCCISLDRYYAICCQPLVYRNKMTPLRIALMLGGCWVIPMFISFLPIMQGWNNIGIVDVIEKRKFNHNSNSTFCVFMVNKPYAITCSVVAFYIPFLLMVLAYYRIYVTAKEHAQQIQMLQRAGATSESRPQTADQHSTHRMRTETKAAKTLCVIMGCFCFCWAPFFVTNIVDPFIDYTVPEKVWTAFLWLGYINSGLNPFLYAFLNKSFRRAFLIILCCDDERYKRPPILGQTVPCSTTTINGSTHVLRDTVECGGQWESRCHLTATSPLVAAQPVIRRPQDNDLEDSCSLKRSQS
Sequence of 5-HT4 receptor (Sus scrofa, UniProt Q6Q253) (Q6Q253 1-402): as the sequence (Q6Q253 1-402) above

In the case of O=C(NCC1CCN(Cc2ccccc2)CC1)c1c2n(c3ccccc13)CCCO2 [E20, N-[(1-Benzyl-4-piperidyl)methy] 3,4-dihydro-2 H-[1,3]oxazino[3,2-a]indole-10-Carboxamide], the “5-HT4 receptor antagonist activity (in words)” value (5-HT4 receptor [1]; Y is NH) is reported as “particularly good activity”.

In the case of O=C(OCCN1CCCCC1)c1c2n(c3ccccc13)CCCO2 [E4, 2-(1-Piperidyl)ethyl 3,4-dihydro-2 H-[1,3]oxazino[3,2-a]indole-10-Carboxylate], the “5-HT4 receptor antagonist activity (in words)” value (5-HT4 receptor [1]; Y is O) is reported as “particularly good activity”.

In the case of CCCCN1CCC(CNC(=O)c2c3n(c4ccc(F)cc24)CCCO3)CC1 [E28, N-[(1-^n Butyl-4-piperidyl)methyl] 8-fluoro-3,4-dihydro-2 H-[1,3]oxazino[3,2-a]indole-10-Carboxamide], the “5-HT4 receptor antagonist activity (in words)” value (5-HT4 receptor [1]; Y is NH) is reported as “particularly good activity”.

In the case of CCCCN1CCC(COC(=O)c2c3n(c4ccccc24)CCCO3)CC1 [E1, (1-^n Butyl-4-piperidyl)methyl-3,4-dihydro-2 H-[1,3]oxazino[3,2-a]indole-10-Carboxylate], the “5-HT4 receptor antagonist activity (in words)” value (5-HT4 receptor [1]; Y is O) is reported as “particularly good activity”.

For CN1C2CCCC1CC(NC(=O)c1nn(C)c3ccccc13)C2 (stereo not shown) [granisetron], the pKi [2] was “below 5”.

Work on CCCCN1CCC(COC(=O)c2cc(I)c(N)c3c2OCCO3)CC1 [SB-207710] yielded a Bmax ([2]; piglet hippocampal membranes, n=4) of 16±3 fmol/mg protein.

In the case of NC(Cc1c[nH]c2ccc(O)cc12)C(=O)O (stereo not shown) [5-HTP, reference compound], the “effect of 5-HTP on FPO” value ([3]; 10 mgkg^-1 s.c.) is reported as “increased FPO above control levels”, the “time of maximum effect of 5-HTP” value ([3]; 10 mgkg^-1 s.c.) is reported as 20 min and the “effect of 5-HTP on faecal output” value ([3]; higher doses than 10 mg kg^-1 s.c.) is reported as “evoked watery diarrhoea and unformed faecal output”.

With CCCCN1CCC(COC(=O)c2c3n(c4ccccc24)CCO3)CC1 [E6, (1-^n Butyl-4-piperidyl)methyl-2,3-dihydrooxazolo[3,2-a]indole-9-Carboxylate] the “5-HT4 receptor antagonist activity (in words)” value (5-HT4 receptor [1]; Y is O) was “particularly good activity”.

In the case of CCCCN1CCC(CNC(=O)c2c3n(c4ccccc24)CCCO3)CC1 [SB-207266-A, N-[(1-^n Butyl-4-piperidyl)methyl]-3,4-dihydro-2 H-[1,3]oxazino[3,2-a]indole-10-Carboxamide], the Kb (5-HT4 receptor [1]) is reported as 0.0398 nM, the “effect on maximum response to 5-HT” value (5-HT4 receptor [1]; 3×10^-8 M and above) is reported as “the maximum response to 5-HT was reduced in a concentration-dependent manner” and the “effect on 5-HT concentration-response curve” value (5-HT4 receptor [1]; 10^-10-10^-8 M, n=6) is reported as “parallel rightward shift of the 5-HT curve with no effect on the maximum response”. The “slope (pA2)” value (5-HT4 receptor [1]; 10^-10-10^-8 M, n=6) was “not significantly different from unity”, the “recovery time of responses to 5-HT” value (5-HT4 receptor [1]; at the highest concentrations (which reduce maximum 5-HT-evoked contractions), washout) was no more than 90 min and the reversibility of antagonism (5-HT4 receptor [1]; upon washout) was “could be reversed upon washout”. The “effect on DMPP-evoked contractions” value (nicotine receptor) was “unaffected”, the “effect on 5-HT curve” value (5-HT4 receptor [4]; 10^-7 M) was “shifted the curve to the right with an apparent reduction in the maximum response” and the “estimated pKb (-log10 Kb)” value (5-HT4 receptor [4]; n=2) was 10.1. The “antagonism of 5-HT response (in words)” value (5-HT4 receptor [5]) was “concentration-dependently acted as a non-surmountable antagonist and reduced the maximum response evoked by 5-HT”, the Kb (5-HT4 receptor [5]; from data with the lowest effective concentration, no reliable pA2 estimate possible) was no more than 0.1 nM and the pKi [2] was 9.48±0.06. The pKd (5-HT1D) was less than 5.00, the pKd (Alpha1) was less than 5.52 and the “duration of action (in words)” value ([6]; 1 and 3 ug.kg^-1 iv) was “variable and apparently reversible”. For the same molecule, the duration of antagonism ([6]; 10 and 100 ug.kg^-1 iv, longer than the experiment) was greater than 285 min, the ED50 ([6]; iv) was 1.3 µg/kg and the ED50 ([6]; po) was 9.6 µg/kg. The “effect on basal motility” value ([6]; any dose, iv and po) was “no effect”, the “antagonism of 5-HT-evoked tachycardia” value (5-HT4 receptors; 0.1, 0.3 or 1.0 ugkg^-1 iv, n=2 each) was “antagonised the 5-HT-evoked tachycardia in a dose-dependent manner” and the recovery from antagonism (5-HT4 receptors; 0.3, 1.0 ugkg^-1 i.v., over the duration of the experiment) was “incomplete”. The “preparations in which the sensitising effect of 5-HT was abolished” value (5-HT4 receptor [7]; 10^-9 M) was 3/3, the “tissues in which the action of 5-HT was antagonised” value (5-HT4 receptor [7]; 10^-10 M) was 3/4 and the “tissues in which there was no ability to antagonise the sensitising effect of 5-HT” value (5-HT4 receptor [7]; 10^-11 M) was 4/4. The duration of action ([3]; 100 ug.kg^-1, dosed 2.5 hours before 5-HTP) was “effective”, the duration of action ([3]; 100 ug.kg^-1, pre-dosed 6 hours before 5-HTP) was “without effect” and the “effect on 5-HTP-evoked increase in FPO” value ([3]; 0.1 to 10 ug.kg^-1 s.c., 5-HTP 10 mg kg^-1 s.c.) was “dose-dependently prevented the 5-HTP-evoked increase in FPO”. For the same molecule, the “effect on fluid secretion evoked by 5-HTP” value ([3]; 5-HTP 10 mg kg^-1 s.c.) was “prevented”, the “effect on watery diarrhoea caused by 5-HTP” value ([3]; 5-HTP 50 mg.kg^-1) was “reduce the watery diarrhoea” and the “effect on the effects of 5-HTP, oral” value ([3]; 10-1000 ug.kg^-1 po, 30 min prior to 5-HTP) was “greatly reduced the effects of 5-HTP”. For the same molecule, the “effect on FPO or fluid content in normal mice” value ([3]; s.c. or po, not pretreated with 5-HTP) was “did not affect either FPO or their fluid content in normal mice”, the “locomotion during the test” value (anxiolytic activity) was “not accompanied by any alteration in locomotion” and the total interaction scores (anxiolytic activity; 1 h after administration) was “Significantly increased total interaction scores”. For the same molecule, the “effect on BIMU 1 concentration-response” value (5-HT4 receptor [8]) was “reduced the maximum response to BIMU 1, without causing a prior right-ward shift in the concentration-response curve”.

With O=C(NCC1CCN(CC2CCCCC2)CC1)c1c2n(c3ccccc13)CCCO2 [E23, N-[(1-Cyclohexylmethyl-4-piperidyl)methyl] 3,4-dihydro-2 H-[1,3]oxazino[3,2-a]indole-10-Carboxamide] the “5-HT4 receptor antagonist activity (in words)” value (5-HT4 receptor [1]; Y is NH) was “particularly good activity”.

O=C(OCC1CCN2CCCCC2C1)c1c2n(c3ccccc13)CCCO2 (stereo not shown) [E2, eq-Quinolizidin-2-ylmethyl-3,4-dihydro-2 H-[1,3]oxazino[3,2-a]indole-10-Carboxylate] was tested, and the “5-HT4 receptor antagonist activity (in words)” value (5-HT4 receptor [1]; Y is O) was “particularly good activity”.

With CCCCN1CCC(COC(=O)c2c3n(c4ccc(F)cc24)CCCO3)CC1 [E27, (1-^n Butyl-4-piperidyl)methyl 8-fluoro-3,4-dihydro-2 H-[1,3]oxazino[3,2-a]indole-10-Carboxylate] the “5-HT4 receptor antagonist activity (in words)” value (5-HT4 receptor [1]; Y is O) was “particularly good activity”.

In the case of CCCCN1CCC(CNC(=O)c2c3n(c4ccccc24)CCCO3)CC1 [E3, N-[(1-^n Butyl-4-piperidyl)methyl]-3,4-dihydro-2 H-[1,3]oxazino[3,2-a]indole-10-Carboxamide], the “5-HT4 receptor antagonist activity (in words)” value (5-HT4 receptor [1]; Y is NH) is reported as “particularly good activity”.

CCCCN1CCC(COC(=O)c2c3n(c4ccccc24)CCCS3)CC1 [E8, (1-^n Butyl-4-piperidyl)methyl-3,4-dihydro-2 H-[1,3]thiazino[3,2-a]indole-10-Carboxylate] was tested, and the “5-HT4 receptor antagonist activity (in words)” value (5-HT4 receptor [1]; Y is O) was “particularly good activity”.

In the case of O=C(OCC1CCN(Cc2ccccc2)CC1)c1c2n(c3ccccc13)CCCO2 [E15, (1-Benzyl-4-piperidyl)methyl-3,4-dihydro-2 H-[1,3]oxazino[3,2-a]indole-10-Carboxylate], the “5-HT4 receptor antagonist activity (in words)” value (5-HT4 receptor [1]; Y is O) is reported as “particularly good activity”.

For O=C(NCC1CCN(CCCOc2ccccc2)CC1)c1c2n(c3ccccc13)CCCO2 [E47, N-[(1-(3-Phenoxypropyl)-4-piperidinyl)methyl] 3,4-dihydro-2 H-[1,3]oxazino[3,2-a]indole-10-Carboxamide], the “5-HT4 receptor antagonist activity (in words)” value (5-HT4 receptor [1]; Y is NH) was “particularly good activity”.

Molecule NCCc1c[nH]c2ccc(O)cc12 [5-HT, 5-hydroxytryptamine] has a pKi [2] of 6.6±0.1.

— patent publication US5852014A, “Condensed indole derivatives as 5HT4 -receptor antagonists” (SmithKline Beecham p.l.c., priority 1992, dated 1998)
